# According to patent publication US10981894B2, “Melanocortin subtype-2 receptor (MC2R) antagonists and uses thereof” (Crinetics Pharmaceuticals, Inc., priority 2018, dated 2021):
# Target: hMC2 receptor (Homo sapiens, UniProt Q01718)
# Assay: hMC2 membrane binding assay ([125I]ACTH (1-39) Tyr23, SPA)
# Parameters: scale not given here
# Conditions: crude hMC2R membranes from CRE-bla-CHO-K1 cells expressing hMC2 receptor and hMRAP; [125I]ACTH (1-39) Tyr23 0.2 nM; 1.5 hours at room temperature; read-out: MC2R binding potency
# Outline: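 CRE-bla-CHO-K1 membranes co-expressing hMC2 receptor and hMRAP, preincubated with WGA PVT SPA beads in pH 7.4 HEPES/MgCl2/CaCl2/0.2% BSA buffer. Compounds (typically 0–10,000 nM final) compete with 0.2 nM [125I]ACTH(1-39) Tyr23 for 1.5 h at room temperature. SPA counts give Ki by non-linear regression.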
# Sequence of hMC2 receptor (Q01718 whole entry): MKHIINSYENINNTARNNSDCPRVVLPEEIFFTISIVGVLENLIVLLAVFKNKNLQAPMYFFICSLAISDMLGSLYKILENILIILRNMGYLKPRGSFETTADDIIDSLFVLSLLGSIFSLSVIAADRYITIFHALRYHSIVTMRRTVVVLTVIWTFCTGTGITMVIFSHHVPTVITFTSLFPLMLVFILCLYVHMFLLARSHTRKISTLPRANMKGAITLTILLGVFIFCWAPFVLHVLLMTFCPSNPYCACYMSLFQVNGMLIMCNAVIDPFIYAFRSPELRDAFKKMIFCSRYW
# Sequence of hMC2 receptor (Q8TCY5 whole entry partner): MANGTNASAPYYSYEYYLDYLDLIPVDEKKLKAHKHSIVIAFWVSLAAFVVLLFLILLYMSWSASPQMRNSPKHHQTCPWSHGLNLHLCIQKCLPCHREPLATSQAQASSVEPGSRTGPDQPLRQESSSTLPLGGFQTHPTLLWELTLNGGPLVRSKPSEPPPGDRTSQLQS
row,Compound,Ki [nM]
1,"CCOc1ncccc1-c1ccc(N2CCN(C(=O)c3ccc(Cl)cc3C(F)F)C[C@H]2CC)c(C(=O)N[C@@H]2CCNC2)n1 [Compound 1-265, 5-[(2R)-4-[4-chloro-2-(difluoromethyl)benzoyl]-2-ethylpiperazin-1-yl]-2′-ethoxy-N-[(3R)-pyrrolidin-3-yl]-[2,3′-bipyridine]-6-carboxamide]",< 10
2,"CC[C@@H]1CN(C(=O)c2ccc(C(F)(F)F)cc2Cl)CCN1c1ccc(-c2ccccc2COC)cc1C(=O)NCCN [Compound 1-16, (R)-N-(2-aminoethyl)-4-(4-(2-chloro-4-(trifluoromethyl)benzoyl)-2-ethylpiperazin-1-yl)-2′-(methoxymethyl)-[1,1′-biphenyl]-3-carboxamide]",10 to 100
3,"CCOc1ncccc1-c1ccc(N2CCN(C(=O)C34CCC(CC3(F)F)C4(C)C)C[C@H]2CC)c(C(=O)N[C@@H]2CCNC2)n1 (stereo partly drawn) [Compound 1-354, 5-[(2R)-4-[2,2-difluoro-7,7-dimethylbicyclo[2.2.1]heptane-1-carbonyl]-2-ethylpiperazin-1-yl]-2′-ethoxy-N-[(3R)-pyrrolidin-3-yl]-[2,3′-bipyridine]-6-carboxamide]",< 10
4,"CCOc1ccccc1-c1ccc(N2CCN(C(=O)c3ccc(C(F)(F)F)cc3Cl)C[C@H]2CC)c(C(=O)NCCN)c1 [Compound 1-3, N-(2-aminoethyl)-4-[(2R)-4-[2-chloro-4-(trifluoromethyl)benzoyl]-2-ethylpiperazin-1-yl]-2′-ethoxy-[1,1′-biphenyl]-3-carboxamide]",< 10
5,"CCOc1ncccc1-c1ccc(N2CCN(C(=O)C3(c4ccccc4)CCC3)C[C@H]2CC)c(C(=O)N[C@@H]2CCNC2)n1 [Compound 1-353, 2′-ethoxy-5-[(2R)-2-ethyl-4-(1-phenylcyclobutanecarbonyl)piperazin-1-yl]-N-[(3R)-pyrrolidin-3-yl]-[2,3′-bipyridine]-6-carboxamide]",< 10
6,"CCOc1ncccc1-c1ccc(N2CCN(C(=O)c3ccc(Cl)cc3C(F)(F)F)C[C@H]2CC)c(C(=O)NC2CNC2)n1 [Compound 1-211, N-(azetidin-3-yl)-5-[(2R)-4-[4-chloro-2-(trifluoromethyl)benzoyl]-2-ethylpiperazin-1-yl]-2′-ethoxy-[2,3′-bipyridine]-6-carboxamide]",< 10
7,"CC[C@@H]1CN(C(=O)c2ccc(C(F)(F)F)cc2Cl)CCN1c1ccc(-c2ccccc2Cl)cc1C(=O)NCCN [Compound 1-6, N-(2-aminoethyl)-2′-chloro-4-[(2R)-4-[2-chloro-4-(trifluoromethyl)benzoyl]-2-ethylpiperazin-1-yl]-[1,1′-biphenyl]-3-carboxamide]",10 to 100
8,"CCOc1ncccc1-c1ccc(N2CCN(C(=O)C3(C(F)(F)F)CCCC3)C[C@H]2CC)c(C(=O)N[C@@H]2CCNC2)n1 [Compound 1-263, 2′-ethoxy-5-[(2R)-2-ethyl-4-[1-(trifluoromethyl)cyclopentanecarbonyl]piperazin-1-yl]-N-[(3R)-pyrrolidin-3-yl]-[2,3′-bipyridine]-6-carboxamide]",< 10
9,"CCOc1ncccc1-c1ccc(N2CCN(C(=O)c3sc(Cl)cc3Cl)C[C@H]2CC)c(C(=O)N[C@@H]2CCN(C)C2)n1 [Compound 1-380, 5-[(2R)-4-(3,5-dichlorothiophene-2-carbonyl)-2-ethylpiperazin-1-yl]-2′-ethoxy-N-[(3R)-1-methylpyrrolidin-3-yl]-[2,3′-bipyridine]-6-carboxamide]",< 10
10,"CCOc1ncccc1-c1ccc(N2CCN(C(=O)c3ccc(Cl)cc3Cl)C[C@H]2CC)c(C(=O)NCC2=NCCN2)c1F [Compound 1-178, 6-[(2R)-4-(2,4-dichlorobenzoyl)-2-ethylpiperazin-1-yl]-N-[(4,5-dihydro-1H-imidazol-2-yl)methyl]-3-(2-ethoxypyridin-3-yl)-2-fluorobenzamide]",< 10
11,"CCOc1ncccc1-c1ccc(N2CCN(C(=O)C3(C(F)(F)F)CCCC3)C[C@H]2CC)c(C(=O)N[C@H]2CCNC2)n1 [Compound 1-321, 2′-ethoxy-5-[(2R)-2-ethyl-4-[1-(trifluoromethyl)cyclopentanecarbonyl]piperazin-1-yl]-N-[(3S)-pyrrolidin-3-yl]-[2,3′-bipyridine]-6-carboxamide]",< 10
12,"CCOc1ncccc1-c1ccc(N2CCN(C(=O)c3ccc(Cl)cc3C(F)(F)F)C[C@H]2CC)c(C(=O)NCCN)c1 [Compound 1-37, N-(2-aminoethyl)-2-[(2R)-4-[4-chloro-2-(trifluoromethyl)benzoyl]-2-ethylpiperazin-1-yl]-5-(2-ethoxypyridin-3-yl)benzamide]",< 10
13,"CCOc1ncccc1-c1ccc(N2CCN(C(=O)c3ccc(OC)nc3C(F)(F)F)C[C@H]2CC)c(C(=O)N[C@@H]2CCNC2)n1 [Compound 1-240, 2′-ethoxy-5-[(2R)-2-ethyl-4-[6-methoxy-2-(trifluoromethyl)pyridine-3-carbonyl]piperazin-1-yl]-N-[(3R)-pyrrolidin-3-yl]-[2,3′-bipyridine]-6-carboxamide]",< 10
14,"CCOc1ncccc1-c1ccc(N2CCN(C(=O)c3ccc(Cl)cc3C(F)(F)F)C[C@H]2CC)c(C(=O)NCCN2CC(F)C2)n1 [Compound 1-357, 5-[(2R)-4-[4-chloro-2-(trifluoromethyl)benzoyl]-2-ethylpiperazin-1-yl]-2′-ethoxy-N-[2-(3-fluoroazetidin-1-yl)ethyl]-[2,3′-bipyridine]-6-carboxamide]",< 10
15,"CCOc1ccccc1-c1ccc(N2CCN(C(=O)N3CCC[C@H]3C(F)(F)F)C[C@H]2CC)c(C(=O)N[C@H]2CCN(C)C2)n1 [Compound 1-375, 6-(2-ethoxyphenyl)-3-[(2R)-2-ethyl-4-[(2S)-2-(trifluoromethyl)pyrrolidine-1-carbonyl]piperazin-1-yl]-N-[(3S)-1-methylpyrrolidin-3-yl]pyridine-2-carboxamide]",< 10
16,"CCOc1ncccc1-c1ccc(N2CCN(C(=O)c3ccc(Cl)cc3Cl)C[C@H]2CC)c(C(=O)N[C@@H]2CCN(C)C2)n1 [Compound 1-259, 5-[(2R)-4-(2,4-dichlorobenzoyl)-2-ethylpiperazin-1-yl]-2′-ethoxy-N-[(3R)-1-methylpyrrolidin-3-yl]-[2,3′-bipyridine]-6-carboxamide]",< 10
17,"CCOc1ncccc1-c1ccc(N2CCN(C(=O)c3ccccc3C(F)(F)F)C[C@H]2CC)c(C(=O)NCCN)c1 [Compound 1-62, N-(2-aminoethyl)-5-(2-ethoxypyridin-3-yl)-2-[(2R)-2-ethyl-4-[2-(trifluoromethyl)benzoyl]piperazin-1-yl]benzamide]",< 10

# Continued, values first:
row,Ki [nM],Compound
1,< 10,"CCOc1ncccc1-c1ccc(N2CCN(C(=O)c3ccc(F)cc3C(F)(F)F)C[C@H]2CC)c(C(=O)NCCc2ncc[nH]2)n1 [Compound 1-224, 2′-ethoxy-5-[(2R)-2-ethyl-4-[4-fluoro-2-(trifluoromethyl)benzoyl]piperazin-1-yl]-N-[2-(1H-imidazol-2-yl)ethyl]-[2,3′-bipyridine]-6-carboxamide]"
2,< 10,"CCOc1ncccc1-c1ccc(N2CCN(C(=O)c3ccc(F)cc3Cl)C[C@H]2CC)c(C(=O)NCCNC)c1F [Compound 1-96, 6-[(2R)-4-(2-chloro-4-fluorobenzoyl)-2-ethylpiperazin-1-yl]-3-(2-ethoxypyridin-3-yl)-2-fluoro-N-[2-(methylamino)ethyl]benzamide]"
3,< 10,"CCOc1ncccc1-c1ccc(N2CCN(C(=O)n3ccc4cccc(C(F)(F)F)c43)C[C@H]2CC)c(C(=O)N[C@@H]2CCN(C)C2)n1 [Compound 1-436, 2′-ethoxy-5-[(2R)-2-ethyl-4-[7-(trifluoromethyl)-1H-indole-1l-carbonyl]piperazin-1-yl]-N-[(3R)-1-methylpyrrolidin-3-yl]-[2,3′-bipyridine]-6-carboxamide]"
4,< 10,"CCOc1ncccc1-c1ccc(N2CCN(C(=O)c3ccc(Cl)cc3C#N)C[C@H]2CC)c(C(=O)NCCNC)n1 [Compound 1-171, 5-[(2R)-4-(4-chloro-2-cyanobenzoyl)-2-ethylpiperazin-1-yl]-2′-ethoxy-N-[2-(methylamino)ethyl]-[2,3′-bipyridine]-6-carboxamide]"
5,< 10,"CC[C@@H]1CN(C(=O)N2CCC[C@H]2C(C)(C)C)CCN1c1ccc(-c2ccccc2OC)nc1C(=O)N[C@@H]1CCNC1 [Compound 1-315, 3-[(2R)-4-[(2S)-2-tert-butylpyrrolidine-1-carbonyl]-2-ethylpiperazin-1-yl]-6-(2-methoxyphenyl)-N-[(3R)-pyrrolidin-3-yl]pyridine-2-carboxamide]"
6,< 10,"CCOc1ncccc1-c1ccc(N2CCN(C(=O)c3ccc(Cl)cc3N3CC[C@@H](CN)C3)C[C@H]2CC)c(C(=O)NCCN)c1 [Compound 1-41, N-(2-aminoethyl)-2-[(2R)-4-{2-[(3S)-3-(aminomethyl)pyrrolidin-1-yl]-4-chlorobenzoyl}-2-ethylpiperazin-1-yl]-5-(2-ethoxypyridin-3-yl)benzamide]"
7,< 10,"CCOc1ccccc1-c1ccc(N2CCN(C(=O)C3(C(F)(F)F)CCCC3)C[C@H]2CC)c(C(=O)NC2CN(C)C2)n1 [Compound 1-399, 6-(2-ethoxyphenyl)-3-[(2R)-2-ethyl-4-[1-(trifluoromethyl)cyclopentanecarbonyl]piperazin-1-yl]-N-(1-methylazetidin-3-yl)pyridine-2-carboxamide]"
8,< 10,"CCOc1ncccc1-c1ccc(N2CCN(C(=O)N3CCc4cccc(C(F)(F)F)c43)C[C@H]2CC)c(C(=O)N[C@@H]2CCNC2)n1 [Compound 1-361, 2′-ethoxy-5-[(2R)-2-ethyl-4-[7-(trifluoromethyl)-2,3-dihydro-1H-indole-1-carbonyl]piperazin-1-yl]-N-[(3R)-pyrrolidin-3-yl]-[2,3′-bipyridine]-6-carboxamide]"
9,< 10,"CCOc1ncccc1-c1ccc(N2CCN(C(=O)[C@H]3CC[C@@H](C(F)(F)F)CC3)C[C@H]2CC)c(C(=O)N[C@@H]2CCN(C)C2)n1 [Compound 1-286, 2′-ethoxy-5-[(2R)-2-ethyl-4-[cis-4-(trifluoromethyl)cyclohexanecarbonyl]piperazin-1-yl]-N-[(3R)-1-methylpyrrolidin-3-yl]-[2,3′-bipyridine]-6-carboxamide]"
